The test system of one experiment is sensory evaluation team. In words: Saltiness threshold analysis by triangle test method. It counts as in vivo. The note with it: serial 1:1 dilution from 1.0 mg/mL; for saltiness threshold: NaCl as positive control. As to the method:
The threshold analysis was conducted by triangle test method. […] A mass concentration of the penultimate solution was recorded as the salinity threshold for the synthetic peptide.

Experiment [1] can be described thus: Electronic tongue saltiness measurement of peptide / NaCl solutions. As to the method:
In order to understand the flavor characteristics of DIQPEER synthetic peptide solutions of different concentrations in NaCl solutions of different concentrations, 0.5 g/L, 1.0 g/L, 1.5 g/L, and 2.0 g/L DIQPEER synthetic peptide aqueous solutions were added into 3.5 g/L, 3.0 g/L, 2.5 g/L, and 2.0 g/L NaCl solutions, respectively, for electronic tongue measurement.
As the concentration of synthetic peptides increased, the concentration of NaCl solution decreased and the saltiness enhancing effect weakened. Without affecting the overall solution taste, DIQPEER could replace about 50% of NaCl compared to the saltiness value of 4.0 g/L NaCl solution.

In the case of `[Cl-].[Na+]` [NaCl, reference compound], the saltiness threshold in the experiment with sensory evaluation team was found to be 1.07 mM.
As for DIQPEER, the “saltiness intensity of peptide aqueous solutions” value in experiment [1] (0.5, 1.0, 1.5 and 2.0 g/L DIQPEER, FIG. 7) is “saltiness intensity increased with the increase of the concentration”. In addition, the “salinity of the solution (synergy with NaCl)” value in experiment [1] (1.0 g/L synthetic peptide added to 3.0 g/L NaCl solution, FIG. 8) is “increased significantly”. Besides, the “saltiness enhancement (increase of saltiness value)” value in experiment [1] (1.0 g/L synthetic peptide added to 3.0 g/L NaCl solution, compared with saltiness value of 4.0 g/L NaCl solution) was 69.59%. In addition, in experiment [1] (compared to the saltiness value of 4.0 g/L NaCl solution), the “share of NaCl that can be replaced” value is recorded as “about 50%”. Besides, the Threshold with sensory evaluation team (saltiness threshold) is reported as 0.282 mmol/L. Further, the saltiness threshold with sensory evaluation team is on record as 0.282 mM.

The values are drawn from patent publication US12426614B2, “Lentinula edodes-derived saltiness enhancing peptide, method for preparing the same and use thereof” (Shanghai Academy of Agricultural Sciences, priority 2023, dated 2025).
